From patent US20230355597A1, “COMPOUNDS, COMPOSITIONS, AND METHODS FOR THE TREATMENT AND PREVENTION OF AVIAN PATHOGENIC E. COLI (APEC)” (OHIO STATE INNOVATION FOUNDATION, priority 2018, published 2023)

How the values were obtained:
AI-2 activity of APEC O8 = assay: AI-2 bioluminescence indicator assay (V. harveyi BB170); settings: APEC O8, 100 µM
Caco-2 cells = assay: LDH assay of AI-2 inhibitors; settings: Caco-2, 100 µM, 24 h
Rif^r APEC O78 [1] = assay: In vivo screening of quorum sensing inhibitors in APEC infected broiler chickens
AI-2 activity of APEC O1 = assay: AI-2 bioluminescence indicator assay (V. harveyi BB170); settings: APEC O1, 100 µM
AI-2 activity of APEC O2 = assay: as above; settings: APEC O2, 100 µM
[2] = test system: QS and virulence associated genes of APEC O78; assay: qRT-PCR of QS-regulated and virulence factors genes; assay type: cell-based, avian pathogenic Escherichia coli (APEC); settings: 100 µM, 10 h
Method: Quantitative real-time reverse transcription PCR (qRT-PCR). […] APEC O78 was grown in the presence of 100 µM of each compound in a 96-well plate at 37° C. for 10 h. APEC O78 culture treated with 1 µL of 100% DMSO was used as […]. Total RNA was extracted from duplicate wells for each compound (200 µL) using a miRNeasy Mini Kit (Qiagen). RNA quality and quantity was determined by nanodrop 2000 C spectrophotometer (Thermo scientific). Traces of DNA was removed using Genomic DNA removal mix (Qiagen). Approximately, 5 µg of purified RNA was used to synthesize cDNA using the Qiagen RT^2 First Strand Kit (Qiagen). The qRT-PCR was performed using SensiMix™ SYBER® Hi-Rox qPCR Master Mix (Bioline) according to manufacturer instructions in a realplex^2 mastercycler (Eppendorf) with 55° C. annealing temperature. Gene-specific primers were designed using PrimerQuest Tool and obtained from integrated DNA technologies (IDT). The data were normalized to the house-keeping gene, glyceraldehyde-3-phosphate dehydrogenase (GAPDH). The relative fold change was calculated using the ΔΔCt method. Three independent experiments were conducted.

Rif^r APEC O78 [3] = assay: Wax moth (Galleria mellonella) larva infection model (AI-2 inhibitors)
[4] = test system: AI-2 activity of APEC O35; assay: AI-2 bioluminescence indicator assay (V. harveyi BB170); settings: APEC O35, 100 µM
[5] = test system: AI-2 activity of APEC O78; assay: as above; settings: APEC O78, 100 µM
[6] = test system: AI-2 activity of APEC O18; assay: as above; settings: APEC O18, 100 µM
[7] = test system: AI-2 activity of APEC O15; assay: as above; settings: APEC O15, 100 µM
[8] = test system: AI-2 activity of APEC O115; assay: as above; settings: APEC O115, 100 µM
APEC O2 in THP-1 cells = assay: Intracellular survival assay (AI-2 inhibitors); settings: O2, THP-1, 100 µM, 6 h
APEC O2 in HD-11 cells = assay: Intracellular survival assay (AI-2 inhibitors); settings: O2, HD-11, 100 µM, 6 h
[9] = test system: AI-2 activity of APEC O109; assay: AI-2 bioluminescence indicator assay (V. harveyi BB170); settings: APEC O109, 100 µM
APEC O78 in HD-11 cells = assay: Intracellular survival assay (AI-2 inhibitors); assay type: cell-based, avian pathogenic Escherichia coli (APEC); settings: O78, HD-11, 100 µM, 6 h
Description: Intracellular survival assay.

SMILES	Inhibition % of AI-2 activity (AI-2 activity of APEC O8) [%]	toxicity (LDH) (Caco-2 cells) [%]	Inhibition % of AI-2 activity (AI-2 activity of APEC O1) [%]	Inhibition % of AI-2 activity (AI-2 activity of APEC O2) [%]	Inhibition % of AI-2 activity [4] [%]	Inhibition % of AI-2 activity [5] [%]	Inhibition % of AI-2 activity [6] [%]	Inhibition % of AI-2 activity [7] [%]	Inhibition % of AI-2 activity [8] [%]	expression of cheW [2]	expression of csrA [2]	Inhibition % of AI-2 activity [9] [%]	other results
CCc1ccccc1Nc1nc(-c2c(C)nc3ccccn23)cs1 [C8, N-{2-ethyphenyl)-4-(2-methylimidazo[1,2-a]pyridin-3-yl)-1.3-thiazol-2-amine]	18	2	41	94	57	98	54	25	44	–	–	–	reduction in chicken mortality (Rif^r APEC O78 [1]; DMSO control mortality normalized to 100%): 50%; average lesion score reduction (Rif^r APEC O78 [1]; liver, heart, lung and airsac, vs DMSO): 1.0-2.0; reduction of bacterial load in internal organs (Rif^r APEC O78 [1]; liver, lung, heart, and kidney, vs DMSO control, 'up to'): 2.2-3.1 log CFU/g; Mortality rate (%) (Rif^r APEC O78 [1]; oral gavage once a day, day 4 to day 8, DMSO control 66.7%): 33.3%; Reduction in APEC lesions severity, Air-sacs (%) (Rif^r APEC O78 [1]; vs DMSO treated control): 66.7%; Reduction in APEC lesions severity, Heart (%) (Rif^r APEC O78 [1]; vs DMSO treated control): 75%; Reduction in APEC lesions severity, Liver (%) (Rif^r APEC O78 [1]; vs DMSO treated control): 75%; Reduction in APEC lesions severity, Lung (%) (Rif^r APEC O78 [1]; vs DMSO treated control): 83.3%; expression of fliP [2]: down-regulated; larval death (Rif^r APEC O78 [3]; 48 h post treatment): no larval death; clearance of APEC in live larvae (Rif^r APEC O78 [3]; 72 h): 100%
Fc1ccc(CN2CCCN(Cc3nc(-c4ccc(C(F)(F)F)cc4)no3)CC2)cc1 [C9, 1-(4-flurobenzyl)-4-((3-[4-(trifluoromethyl)phenyl]-1,2,4-oxadiazol-5-yl]methyl)-1,4-diazapane]	20	–	19	51	36	79	14	0	44	down-regulated	down-regulated	66	clearance of intracellular APEC (APEC O2 in THP-1 cells): 100%; reduction of intracellular survival (APEC O2 in THP-1 cells; vs DMSO): 4 logs; expression of murD [2]: down-regulated; clearance of intracellular APEC (APEC O2 in HD-11 cells): 100%; reduction of intracellular survival (APEC O2 in HD-11 cells; vs DMSO): 3.3 logs; clearance of intracellular APEC (APEC O78 in HD-11 cells): 100%; reduction of intracellular survival (APEC O78 in HD-11 cells; vs DMSO): 4 logs
COC(=S)NN=Cc1cc(C)ccc1O [C4, methyl N′-{2-hydroxy-5-methylbenzylidene)hydrazonethiocarbonate]	0	12	63	76	60	75	54	46	58	down-regulated	down-regulated	67	expression of iucD [2]: down-regulated; expression of pfs [2]: up-regulated
